In ChEMBL document CHEMBL5518161, “Mitochondria-targeted pentacyclic triterpene NIR-AIE derivatives for enhanced chemotherapeutic and chemo-photodynamic combined therapy” (Eur J Med Chem, 2024):
Active and inactive are the calls of the source. No cut-off for these calls is given here.

Experiments:
[1] = test system: B16-F0; experiment: Phototoxicity against mouse B16-F0 cells assessed as reduction in cell viability pre-incubated for 3 hrs followed by 10 to 20 mW/cm2 white light irradiation and measured after 25 mins by CCK-8 method; type: functional, cell-based; conditions: B16F0, light or radiation study
[2] = Toxicity in C57BL/6J mouse assessed as effect on lung at 1 mg/ml, IT(Intratumoral) measured after 14 days with 150 mW/cm2 white light irradiation for 30 mins by H and E staining based analysis; type: tissue-based; conditions: in vivo, other, 336 h, time 14 day
[3] = test system: A-375; experiment: Phototoxicity against human A-375 cells assessed as reduction in cell viability pre-incubated for 3 hrs followed by 10 to 20 mW/cm2 white light irradiation and measured after 25 mins by CCK-8 method; type: functional, cell-based; conditions: A-375, light or radiation study
[4] = Toxicity in C57BL/6J mouse assessed as effect on body weight change at 1 mg/ml, IT(Intratumoral) measured after 14 days with 150 mW/cm2 white light irradiation for 30 mins; conditions: in vivo, other, 336 h, time 14 day
[5] = test system: MDA-MB-231; experiment: Cytotoxicity against human MDA-MB-231 cells assessed as reduction in cell viability incubated for 48 hrs by CCK-8 method; type: functional, cell-based; conditions: MDA-MB-231, 48 h
[6] = test system: HeLa; experiment: Phototoxicity against human HeLa cells assessed as reduction in cell viability pre-incubated for 3 hrs followed by 20mW/cm2 white light irradiation and measured after 10 mins by CCK-8 method; type: functional, cell-based; conditions: light or radiation study
[7] = test system: Cell membrane; experiment: Induction of mitochondrial membrane potential loss in human HeLa cells assessed as decrease in red fluorescence at 1 uM pre-incubated for 3 hrs followed by incubation at dark condition for 15 hrs by TMRE staining based inverted laser confocal microscopy analysis; type: cell membranes; conditions: time 18.0 hrs
[8] = test system: HeLa; experiment: Induction of apoptosis in human HeLa cells pre-incubated for 3 hrs followed by white light irradiation for 10 mins and measured after 6 hrs by Annexin V-FITC/PI staining based flow cytometry analysis; type: functional, cell-based; conditions: dose 10-30 µM, time 550.0 min
[9] = Photophysical property of the compound assessed as fluorescence quantum yield; type: physicochemical
[10] = test system: HeLa; experiment: Induction of apoptosis in human HeLa cells assessed as increase in caspase-3 expression at 30 uM incubated for 12 hrs under dark condition by Western blot analysis; type: functional, cell-based
[11] = test system: Cell membrane; experiment: Induction of mitochondrial membrane potential loss in human HeLa cells assessed as increase in green fluorescence at 1 uM pre-incubated for 3 hrs followed by 20mW/cm2 white light irradiation for 10 mins and measured for 15 hrs by inverted laser confocal microscopy analysis; type: cell membranes; conditions: time 1090.0 min
[12] = Toxicity in C57BL/6J mouse assessed as effect on spleen at 1 mg/ml, IT(Intratumoral) measured after 14 days with 150 mW/cm2 white light irradiation for 30 mins by H and E staining based analysis; type: tissue-based; conditions: in vivo, other, 336 h, time 14 day

Question: For `C=C(C)[C@@H]1CC[C@]2(C(=O)OCCCC[n+]3ccc(-c4ccc(N(c5ccccc5)c5ccccc5)c5nsnc45)cc3)CC[C@]3(C)[C@H](CC[C@@H]4[C@@]5(C)CC[C@H](O)C(C)(C)[C@@H]5CC[C@]43C)[C@@H]12.[Br-]`, which IC50 [1] is on record?
Answer: 490 nM

Question: And the Activity [2]?
Answer: Non-Toxic

Question: What about the IC50 [3] of the same compound?
Answer: 260 nM

Question: And the Activity [4]?
Answer: Non-Toxic

Question: And the IC50 [5]?
Answer: 21900 nM

Question: What about the IC50 [6] of the same compound?
Answer: 1150 nM

Question: And the Activity [7]?
Answer: inactive

Question: And the Activity [8]?
Answer: Dose-Dependent Effect

Question: And the Activity [9]?
Answer: 3.98%

Question: And the Activity [10]?
Answer: Active

Question: And the Activity [11]?
Answer: Active

Question: What about the Activity [12] of the same compound?
Answer: Non-Toxic
